Assay results published in BindingDB's records for doi:10.7270/Q25H7DQC (Nmmlsc, 2009).

Each molecule was assayed against Ras-related protein Rab-2A (Canis lupus familiaris, UniProt P61105) (assay: fluorescent GTP competition at wildtype Rab2A – biochemical, multiplex dose response, Bodipy-FL-GTP, flow cytometry, SAR follow-up (AID 2033)). Settings: not given.
Sequence of Ras-related protein Rab-2A (P61105 whole entry): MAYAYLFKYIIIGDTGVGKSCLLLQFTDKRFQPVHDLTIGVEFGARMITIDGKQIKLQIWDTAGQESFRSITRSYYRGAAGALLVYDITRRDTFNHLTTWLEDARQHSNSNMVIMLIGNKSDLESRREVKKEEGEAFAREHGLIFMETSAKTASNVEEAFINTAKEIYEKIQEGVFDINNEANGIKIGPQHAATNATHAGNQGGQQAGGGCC

Row | EC50 [µM] | Structure (SMILES)
1 | > 30 | Cc1ccc(C)c(N2CCN(C(=O)CCc3nc(-c4ccccc4C(F)(F)F)no3)CC2)c1
2 | > 30 | Cc1ccc(C)c(N2CCN(C(=O)CCc3nc(-c4ccc(C(F)(F)F)cc4)no3)CC2)c1 [1-[4-(2,5-dimethylphenyl)-1-piperazinyl]-3-[3-[4-(trifluoromethyl)phenyl]-1,2,4-oxadiazol-5-yl]-1-propanone]
3 | > 30 | COc1ccc(-c2noc(CCCCC(=O)N3CCN(c4cc(C)ccc4C)CC3)n2)cc1 [1-[4-(2,5-dimethylphenyl)-1-piperazinyl]-5-[3-(4-methoxyphenyl)-1,2,4-oxadiazol-5-yl]-1-pentanone]
4 | > 30 | COc1ccc(-c2noc(CC(=O)N3CCN(c4cc(C)ccc4C)CC3)n2)cc1 [1-[4-(2,5-dimethylphenyl)piperazin-1-yl]-2-[3-(4-methoxyphenyl)-1,2,4-oxadiazol-5-yl]ethanone]
5 | > 30 | COc1ccc(-c2coc(CCC(=O)N3CCN(c4cc(C)ccc4C)CC3)n2)cc1 [1-[4-(2,5-dimethylphenyl)piperazin-1-yl]-3-[4-(4-methoxyphenyl)-1,3-oxazol-2-yl]propan-1-one]
6 | > 30 | COc1ccc(-c2noc(CCC(=O)N3CCN(c4cccc(Br)c4)CC3)n2)cc1 [1-[4-(3-bromophenyl)-1-piperazinyl]-3-[3-(4-methoxyphenyl)-1,2,4-oxadiazol-5-yl]-1-propanone]
7 | > 30 | COc1ccc(-c2noc(CCC(=O)N3CCN(c4cccc(F)c4)CC3)n2)cc1 [1-[4-(3-fluorophenyl)piperazin-1-yl]-3-[3-(4-methoxyphenyl)-1,2,4-oxadiazol-5-yl]propan-1-one]
8 | > 30 | COc1ccc(-c2noc(CCC(=O)N3CCN(c4ccc(Br)cc4)CC3)n2)cc1 [1-[4-(4-bromophenyl)piperazin-1-yl]-3-[3-(4-methoxyphenyl)-1,2,4-oxadiazol-5-yl]propan-1-one]
9 | > 30 | COc1ccc(-c2noc(CCC(=O)N3CCN(c4cccc(C(F)(F)F)c4)CC3)n2)cc1 [1-{3-[3-(4-methoxyphenyl)-1,2,4-oxadiazol-5-yl]propanoyl}-4-[3-(trifluoromethyl)phenyl]piperazine]
10 | > 30 | Cc1ccc(C)c(N2CCN(C(=O)CCc3nc(-c4ccccc4Cl)no3)CC2)c1 [3-[3-(2-chlorophenyl)-1,2,4-oxadiazol-5-yl]-1-[4-(2,5-dimethylphenyl)-1-piperazinyl]-1-propanone]
11 | > 30 | COc1ccc(-c2noc(CCC(=O)N3CCN(c4ccccc4)CC3)n2)cc1 [3-[3-(4-methoxyphenyl)-1,2,4-oxadiazol-5-yl]-1-(4-phenylpiperazin-1-yl)propan-1-one]
12 | > 30 | COc1ccc(-c2noc(CCC(=O)N3CCN(c4ccc(OC)cc4)CC3)n2)cc1 [3-[3-(4-methoxyphenyl)-1,2,4-oxadiazol-5-yl]-1-[4-(4-methoxyphenyl)piperazin-1-yl]propan-1-one]
13 | > 30 | COc1ccc(-c2noc(CCC(=O)N3CCN(c4ccc(C(F)(F)F)cc4)CC3)n2)cc1 [3-[3-(4-methoxyphenyl)-1,2,4-oxadiazol-5-yl]-1-[4-[4-(trifluoromethyl)phenyl]piperazin-1-yl]propan-1-one]
14 | > 30 | Cc1ccc(C)c(N2CCN(C(=O)CCc3nc(-c4cccc(F)c4)no3)CC2)c1 [KUC103366N]
15 | > 30 | Cc1ccc(C)c(N2CCN(C(=O)CCc3nc(-c4cccc(C(F)(F)F)c4)no3)CC2)c1 [KUC103380N]
16 | > 30 | COc1ccc(-c2noc(CCC(=O)N3CCN(c4ccc(F)cc4)CC3)n2)cc1 [KUC103398N]
17 | > 30 | Cc1ccc(C)c(N2CCN(C(=O)CCc3nc(-c4ccc(N(C)C)cc4)no3)CC2)c1 [KUC103409N]
18 | > 30 | COc1ccccc1-c1noc(CCC(=O)N2CCN(c3cc(C)ccc3C)CC2)n1 [UNM-0000306071]
19 | > 30 | COc1ccc(-c2noc(CCC(=O)N3CCN(c4ccc(Cl)cc4)CC3)n2)cc1 [UNM-0000306121]
20 | > 30 | COc1ccc(-c2noc(CCC(=O)N3CCN(c4cccc(C)c4)CC3)n2)cc1 [UNM-0000306125]
21 | > 30 | COc1ccc(-c2cccc(CCC(=O)N3CCN(c4cc(C)ccc4C)CC3)c2)cc1 [UNM-0000306127]
22 | > 30 | COc1ccc(-c2cc(CCC(=O)N3CCN(c4cc(C)ccc4C)CC3)[nH]n2)cc1 [UNM-0000306150]

Same assay, conditions: inactive by the depositor's call

Row | EC50 [µM] | Structure (SMILES)
23 | 3.9 | COc1cccc(-c2noc(CCC(=O)N3CCN(c4cc(C)ccc4C)CC3)n2)c1
24 | 1.67 | Cc1ccc(C)c(N2CCN(C(=O)CCc3nc(-c4ccccc4C)no3)CC2)c1
25 | 8.53 | COc1ccc(-c2noc(CCC(=O)N3CCN(c4cccc(Cl)c4)CC3)n2)cc1
26 | 2.54 | COc1ccc(-c2noc(CCC(=O)N3CCN(c4ccccc4C)CC3)n2)cc1
27 | 2.48 | COc1ccc(-c2ccc(CCC(=O)N3CCN(c4cc(C)ccc4C)CC3)s2)cc1
28 | 2.31 | COc1ccc(-c2noc(CCC(=O)N3CCN(c4cccc(C)c4C)CC3)n2)cc1 [1-[4-(2,3-dimethylphenyl)-1-piperazinyl]-3-[3-(4-methoxyphenyl)-1,2,4-oxadiazol-5-yl]-1-propanone]
29 | 2.49 | COc1ccc(-c2noc(CCC(=O)N3CCN(c4cc(C)ccc4C)CC3)n2)cc1 [1-[4-(2,5-dimethylphenyl)-1-piperazinyl]-3-[3-(4-methoxyphenyl)-1,2,4-oxadiazol-5-yl]-1-propanone]
30 | 4.14 | Cc1ccc(-c2noc(CCC(=O)N3CCN(c4cc(C)ccc4C)CC3)n2)cc1 [1-[4-(2,5-dimethylphenyl)-1-piperazinyl]-3-[3-(4-methylphenyl)-1,2,4-oxadiazol-5-yl]-1-propanone]
31 | 1.32 | Cc1cccc(-c2noc(CCC(=O)N3CCN(c4cc(C)ccc4C)CC3)n2)c1 [1-[4-(2,5-dimethylphenyl)piperazin-1-yl]-3-[3-(3-methylphenyl)-1,2,4-oxadiazol-5-yl]propan-1-one]
32 | 2.54 | COc1ccc(-c2cc(CCC(=O)N3CCN(c4cc(C)ccc4C)CC3)on2)cc1 [1-[4-(2,5-dimethylphenyl)piperazin-1-yl]-3-[3-(4-methoxyphenyl)-1,2-oxazol-5-yl]propan-1-one]
33 | 5.22 | COc1ccc(-c2ccc(CCC(=O)N3CCN(c4cc(C)ccc4C)CC3)[nH]2)cc1 [1-[4-(2,5-dimethylphenyl)piperazin-1-yl]-3-[5-(4-methoxyphenyl)-1H-pyrrol-2-yl]propan-1-one]
34 | 2.39 | COc1ccc(-c2noc(CCC(=O)N3CCN(c4ccccc4Cl)CC3)n2)cc1 [1-[4-(2-chlorophenyl)piperazin-1-yl]-3-[3-(4-methoxyphenyl)-1,2,4-oxadiazol-5-yl]propan-1-one]
35 | 0.733 | COc1ccc(-c2noc(CCC(=O)N3CCN(c4ccccc4F)CC3)n2)cc1 [1-[4-(2-fluorophenyl)piperazin-1-yl]-3-[3-(4-methoxyphenyl)-1,2,4-oxadiazol-5-yl]propan-1-one]
36 | 3.13 | Cc1ccc(C)c(N2CCN(C(=O)CCc3nc(-c4ccccc4Br)no3)CC2)c1 [3-[3-(2-bromophenyl)-1,2,4-oxadiazol-5-yl]-1-[4-(2,5-dimethylphenyl)-1-piperazinyl]-1-propanone]
37 | 1.32 | COc1ccc(-c2noc(CCC(=O)N3CCN(c4ccccc4OC)CC3)n2)cc1 [3-[3-(4-methoxyphenyl)-1,2,4-oxadiazol-5-yl]-1-[4-(2-methoxyphenyl)-1-piperazinyl]-1-propanone]
38 | 0.708 | COc1ccc(-c2noc(CCC(=O)N3CCN(c4ccc(C)cc4)CC3)n2)cc1 [3-[3-(4-methoxyphenyl)-1,2,4-oxadiazol-5-yl]-1-[4-(4-methylphenyl)piperazin-1-yl]propan-1-one]
39 | 6.46 | COc1ccc(-c2noc(CCC(=O)N3CCN(c4cccc(OC)c4)CC3)n2)cc1 [KUC103349N]
40 | 16.2 | COc1ccc(-c2noc(CCCC(=O)N3CCN(c4cc(C)ccc4C)CC3)n2)cc1 [KUC103353N]
41 | 0.335 | Cc1ccc(C)c(N2CCN(C(=O)CCc3nc(-c4ccc(F)cc4)no3)CC2)c1 [KUC103364N]
42 | 3.66 | Cc1ccc(C)c(N2CCN(C(=O)CCc3nc(-c4cccc(Br)c4)no3)CC2)c1 [KUC103367N]
43 | 3.22 | COc1ccc(-c2noc(CCC(=O)N3CCN(c4ccccc4Br)CC3)n2)cc1 [KUC103370N]
44 | 0.908 | Cc1ccc(C)c(N2CCN(C(=O)CCc3nc(-c4ccccc4F)no3)CC2)c1 [KUC103401N]
45 | 2.51 | COc1ccc(-c2noc(CCC(=O)N3CCC(c4cc(C)ccc4C)CC3)n2)cc1 [KUC103432N]
46 | 15.1 | COc1ccc(-c2ccc(CCC(=O)N3CCN(c4cc(C)ccc4C)CC3)o2)cc1 [KUC103447N]
47 | 0.841 | Cc1ccc(C)c(N2CCN(C(=O)CCc3nc(-c4ccccc4)no3)CC2)c1 [UNM-0000306070]
48 | 2.94 | Cc1ccc(C)c(N2CCN(C(=O)CCc3nc(-c4ccc(Br)cc4)no3)CC2)c1 [UNM-0000306072]
49 | 2.1 | COc1ccc(-c2noc(CCC(=O)N3CCN(c4ccccc4C(F)(F)F)CC3)n2)cc1 [UNM-0000306082]
50 | 1.79 | Cc1ccc(C)c(N2CCN(C(=O)CCc3nc(-c4ccc(Cl)cc4)no3)CC2)c1 [UNM-0000306083]
51 | 2.9 | Cc1ccc(C)c(N2CCN(C(=O)CCc3nc(-c4cccc(Cl)c4)no3)CC2)c1 [UNM-0000306086]
